# “And” between values parts separate entries of the source, which are not always exact repeats. Equal entries are not always repeated. “Also recorded” adds a separate entry of the source. Structures can show the parent of a compound that is named as a salt.
# Assays:
# [1] = Fluorescence (λf, quantum yield); format: physicochemical; settings: for .PHI.f (fluorescence quantum yield): ethanol, excitation 450 and 460 nm, reference acridine orange
# Method: Instruments for spectroscopic measurements included: Perkin-Elmer 1600 FTIR, Varian Gernini 300 NMR, Hewlett-Packard 5985 (70 eV) GC-MS, Cary 17 (UV), and Perkin-Elmer LS-5B Luminescence spectrometer. A dye laser was constructed and operated in the non-flowing (static) mode and had no tuning capability. […] Laser energy outputs were measured with an accuracy of ±5% by a Scientech 365 power and energy meter.
# (§1) Light absorption, luminescence, and laser activity properties for the dyes 7 are described in Table VI. Each recorded UV absorption was restricted to the highest wave length. Fluorescence quantum yields of the dyes were determined for ethanol solutions with excitation at 450 and 460 nm by reference to acridine orange, .PHI.0.46, in ethanol; for the dye 7p the reference was R-6G, <P 0.90. Melting points were obtained from a Mel-Temp II device and were uncorrected. The solvent for ^1 H NMR spectra was chloroform-d with tetramethylsilane as an internal standard. Elemental analyses were obtained from Midwest Micro Lab, Indianapolis, Ind. and Galbraith Laboratories, Inc., Knoxville, Tenn. Solvents were removed by rotary evaporation under reduced pressure unless indicated otherwise. Column chromatography was performed on silica gel. Molecular weights were confirmed by EI-MS for the pyrrole 4j 193 and for laser dyes 7d 346, 7e 374, 7g 374, 7i 342, 7j 314 and 7x 360. IR absorption data satisfactorily supported structure assignments for the laser dyes 7.
# ^[b] 2 × 10^-4 M in ethanol except where noted otherwise.
# [2] = UV light absorption (λmax, log ε); format: physicochemical; settings: for absorption shift: in comparison with 8-substituted peralkylated structures (7b, g, k); for log ε: solvent as for λmax (ethanol except where noted)
# Method: as §1, with “Each” for “Light absorption, luminescence, and laser activity properties for the dyes 7 are described in Table VI. Each”, “0.90. […]” for “0.90.”, “gel.” for “gel. Molecular weights were confirmed by EI-MS for the pyrrole 4j 193 and for laser dyes 7d 346, 7e 374, 7g 374, 7i 342, 7j 314 and 7x 360. IR absorption data satisfactorily supported structure assignments for the laser dyes 7.”
# 5 × 10^-6 M in ethanol except where noted otherwise.
structure (smiles),measurement,setting,value
"CCC1=C(CC)C(C)=[N+]2C1=Cc1c(CC)c(CC)c(C)n1[B-]2(F)F [Compound 7y, 1,2,6,7-tetraethyl-3,5-dimethylpyrromethene-BF2 complex]",fluorescence,[1],erratic effect on fluorescence
same,λf,[1]; 2 × 10^-4 M in ethanol,554 nm
same,.PHI.f (fluorescence quantum yield),[1],0.70
same,λmax,[2]; 5 × 10^-6 M in ethanol,529 nm
same,absorption shift,[2],slight bathochromic shift in absorption
same,log ε,[2],4.89
CC(=O)NC1=C(C)C2=C(C)c3c(C)c(NC(C)=O)c(C)n3[B-](F)(F)[N+]2=C1C [Compound 7m],λf,[1]; 2 × 10^-4 M in trifluoroethanol,542 nm
same,.PHI.f (fluorescence quantum yield),[1],0.17
same,λmax,[2]; 5 × 10^-6 M in trifluoroethanol,498 nm
same,log ε,[2],4.63
"CCC1=C(C)C2=Cc3c(C)c(CC)c(C)n3[B-](CC)(CC)[N+]2=C1C [Compound 10, 1,3,5,7-tetramethyl-2,6-diethylpyrromethene-B(CH2 CH3)2 complex, reference compound]",.PHI.f,[1]; solvent not stated,0.31
"CCC1=C(C)C2=C(C#N)c3c(C)c(CC)c(C)n3[B-](F)(F)[N+]2=C1C [Compound 7bb, 1,3,5,7-Tetramethyl-2,6-diethyl-8-cyanopyrromethene-BF2 complex]",λf,[1]; 2 × 10^-4 M in p-dioxan,620 nm
same,.PHI.f (fluorescence quantum yield),[1],0.55
same,λmax,[2]; 2 × 10^-4 M in p-dioxan,580 nm
same,log ε,[2],4.72
"CC1=C(C)C(C)=[N+]2C1=Cc1c(C)c(C)c(C)n1[B-]2(F)F [Compound 7z, 1,2,3,5,6,7-hexamethylpyrromethene-BF2 complex]",fluorescence,[1],erratic effect on fluorescence
same,λf,[1]; 2 × 10^-4 M in ethanol,552 nm
same,.PHI.f (fluorescence quantum yield),[1],0.56
same,λmax,[2]; 5 × 10^-6 M in ethanol,528 nm
same,absorption shift,[2],slight bathochromic shift in absorption
same,log ε,[2],4.84
Cc1nc2n(c1C)[B-](F)(F)[n+]1c-2[nH]c(C)c1C [Compound 21-BF3],.THETA.f,[1]; Lewis acid salt 21-BF3,0.93
same,λf,[1]; Lewis acid salt 21-BF3,377 nm
CC1=C(C(C)C)C(C)=[N+]2C1=C(C)c1c(C)c(C(C)C)c(C)n1[B-]2(F)F [Compound 7f],λf,[1]; 2 × 10^-4 M in ethanol,548 nm
same,.PHI.f (fluorescence quantum yield),[1],0.67
same,λmax,[2]; 5 × 10^-6 M in ethanol,516 nm
same,log ε,[2],4.85
"CCCC1=C(C)C2=C(C)c3c(C)c(CCC)c(C)n3[B-](F)(F)[N+]2=C1C [Compound 7d, 2,6-Di-n-propyl-1,3,5,7,8-pentamethylpyrromethene-BF2 complex]",λf,[1]; 2 × 10^-4 M in ethanol,549 nm
same,.PHI.f (fluorescence quantum yield),[1],0.99
same,λmax,[2]; 5 × 10^-6 M in ethanol,517 nm
same,log ε,[2],4.89
"COc1ccc(C2=C3C(C)=CC(C)=[N+]3[B-](F)(F)n3c(C)cc(C)c32)cc1 [Compound 7t, 1,3,5,7-tetramethyl-8-p-methoxyphenylpyrromethene-BF2 complex]",λf,[1]; 2 × 10^-4 M in ethanol,521 nm
same,.PHI.f (fluorescence quantum yield),[1],0.63
same,λmax,[2]; 5 × 10^-6 M in ethanol,497 nm
same,log ε,[2],4.86
CCC1=C(C)C2=C(COC(C)=O)c3c(C)c(CC)c(C)n3[B-](F)(F)[N+]2=C1C [Compound 7r],λf,[1]; 2 × 10^-4 M in ethanol,575 nm
same,.PHI.f (fluorescence quantum yield),[1],0.74
same,λmax,[2]; 5 × 10^-6 M in ethanol,543 nm
same,log ε,[2],4.89
CC1=C(C(C)(C)C)C(C)=[N+]2C1=C(C)c1c(C)c(C(C)(C)C)c(C)n1[B-]2(F)F [Compound 7g],λf,[1]; 2 × 10^-4 M in ethanol,567 nm
same,.PHI.f (fluorescence quantum yield),[1],0.77
same,λmax,[2]; 5 × 10^-6 M in ethanol,525 nm
same,log ε,[2],4.83
"CC1=C2C3=C(CCC3)C(C)=[N+]2[B-](F)(F)n2c(C)c3c(c21)CCC3 [Compound 7j, 1,2,6,7-bistrimethylene-3,5,8-trimethylpyrromethene-BF2 complex]",λf,[1]; 2 × 10^-4 M in ethanol,535 nm
same,λmax,[2]; 5 × 10^-6 M in ethanol,512 nm
same,log ε,[2],> 4.8 and 4.82
"CCOC(=O)C1=C(C)C2=C(C#N)c3c(C)c(C(=O)OCC)c(C)n3[B-](F)(F)[N+]2=C1C [Compound 7aa, diethyl 1,3,5,7-tetramethyl-8-cyanopyrromethene-2,6-dicarboxylate-BF2 complex]",λf,[1]; 2 × 10^-4 M in p-dioxan,589 nm
same,.PHI.f (fluorescence quantum yield),[1],0.82
same,λmax,[2]; 2 × 10^-4 M in p-dioxan,556 nm
same,log ε,[2],4.98
CC1=C2CCCCC2=[N+]2C1=C(C)c1c(C)c3c(n1[B-]2(F)F)CCCC3 [Compound 7i],λf,[1]; 2 × 10^-4 M in ethanol,552 nm
same,λmax,[2]; 5 × 10^-6 M in ethanol,522 nm
same,log ε,[2],> 4.8 and 4.91
"CC1=C(C(C)(C)C)C(C)=[N+]2C1=Cc1c(C)c(C(C)(C)C)c(C)n1[B-]2(F)F [Compound 7x, 1,3,5,7-tetramethyl-2,6-di-tert-butylpyrromethene-BF2 complex]",fluorescence,[1],erratic effect on fluorescence
same,λf,[1]; 2 × 10^-4 M in ethanol,554 nm
same,.PHI.f (fluorescence quantum yield),[1],0.84
same,λmax,[2]; 5 × 10^-6 M in ethanol,527 nm
same,absorption shift,[2],slight bathochromic shift in absorption
same,log ε,[2],4.93
"CCC1=C(C)C2=C(C3CCCCC3)c3c(C)c(CC)c(C)n3[B-](F)(F)[N+]2=C1C [Compound 7q, 1,3,5,7-tetramethyl-2,6-diethyl-8-cyclohexylpyrromethene-BF2 complex]",λf,[1]; 2 × 10^-4 M in ethanol,526 nm
same,.PHI.f (fluorescence quantum yield),[1],0.23
same,λmax,[2]; 5 × 10^-6 M in ethanol,516 nm
same,log ε,[2],4.81
"CC1=[N+]2C(=Cc3c(-c4ccccc4)cc(C)n3[B-]2(F)F)C(c2ccccc2)=C1 [Compound 7w, 1,7-diphenyl-3,5-dimethylpyrromethene-BF2 complex]",λf,[1]; 2 × 10^-4 M in ethanol,551 nm
same,.PHI.f (fluorescence quantum yield),[1],0.61
same,λmax,[2]; 5 × 10^-6 M in ethanol,521 nm
same,log ε,[2],4.92
CCC1=C(C)C2=Cc3c(C)c(CC)c(C)n3[B-](F)(F)[N+]2=C1C [Compound 11],.PHI.f,[1]; solvent not stated,0.81
"CC1=C2C=C3CCCCC3=[N+]2[B-](F)(F)n2c1cc1c2CCCC1 [Compound 7h, 2,3,6,7-bistetramethylene-8-methylpyrromethene-BF2 complex]",λf,[1]; 2 × 10^-4 M in ethanol,560 nm
same,λmax,[2]; 5 × 10^-6 M in ethanol,535 nm
same,log ε,[2],> 4.8 and 4.93
"CC1=[N+]2C(=Cc3c(-c4ccccc4)c(-c4ccccc4)c(C)n3[B-]2(F)F)C(c2ccccc2)=C1c1ccccc1 [Compound 7v, 1,2,6,7-tetraphenyl-3,5-dimethylpyrromethene-BF2 complex]",λf,[1]; 2 × 10^-4 M in ethanol,590 nm
same,.PHI.f (fluorescence quantum yield),[1],0.69
same,λmax,[2]; 5 × 10^-6 M in ethanol,552 nm
same,log ε,[2],4.91
"CCC1=C(CC)C(C)=[N+]2C1=C(C)c1c(CC)c(CC)c(C)n1[B-]2(F)F [Compound 7k, 1,2,6,7-tetraethyl-3,5,8-trimethylpyrromethene BF2 complex]",λf,[1]; 2 × 10^-4 M in ethanol,554 nm
same,.PHI.f (fluorescence quantum yield),[1],0.75
same,λmax,[2]; 5 × 10^-6 M in ethanol,521 nm
same,log ε,[2],4.89
"CCC1=C(C)C2=C(C(C)C)c3c(C)c(CC)c(C)n3[B-](F)(F)[N+]2=C1C [Compound 7p, 1,3,5,7-tetramethyl-2,6-diethyl-8-isopropylpyrromethene-BF2 complex]",fluorescence,[1],large reduction in fluorescence; also recorded: absence of fluorescence
same,λf,[1]; 2 × 10^-4 M in ethanol,562 nm
same,.PHI.f,[1]; with reference to R-6G .PHI. 0.90,0.07
same,λmax,[2]; 5 × 10^-6 M in ethanol,527 nm
same,log ε,[2],4.84
CCC1=C(c2ccccc2)C2=Cc3c(-c4ccccc4)c(CC)c(C)n3[B-](F)(F)[N+]2=C1C [Compound 7u],λf,[1]; 2 × 10^-4 M in ethanol,564 nm
same,.PHI.f (fluorescence quantum yield),[1],0.60
same,λmax,[2]; 5 × 10^-6 M in ethanol,540 nm
same,log ε,[2],5.00
CCC1=C(C)C2=C(c3ccc(N(C)C)cc3)c3c(C)c(CC)c(C)n3[B-](F)(F)[N+]2=C1C [Compound 7s],λf,[1]; 2 × 10^-4 M in ethanol,575 nm
same,.PHI.f (fluorescence quantum yield),[1],0.04
same,λmax,[2]; 5 × 10^-6 M in ethanol,519 nm
same,log ε,[2],4.95
"CCC1=C(C)C2=C(CC)c3c(C)c(CC)c(C)n3[B-](F)(F)[N+]2=C1C [Compound 7o, 1,3,5,7-tetramethyl-2,6,8-triethylpyrromethene-BF2 complex]",λf,[1]; 2 × 10^-4 M in ethanol,546 nm
same,.PHI.f (fluorescence quantum yield),[1],0.84
same,λmax,[2]; 5 × 10^-6 M in ethanol,520 nm
same,log ε,[2],4.92
CC1=C(c2ccccc2)C(C)=[N+]2C1=C(C)c1c(C)c(-c3ccccc3)c(C)n1[B-]2(F)F [Compound 7l],λf,[1]; 2 × 10^-4 M in ethanol,559 nm
same,.PHI.f (fluorescence quantum yield),[1],0.43
same,λmax,[2]; 5 × 10^-6 M in ethanol,519 nm
same,log ε,[2],4.90
"CCC1=C(C)C(=Cc2[nH]c(C)c(CC)c2C)N=C1C [Compound 9, 3,5,3',5'-tetramethyl-4,4'-diethylpyrromethene hydrobromide, reference compound]",.PHI.f,[1]; solvent not stated,4.3×10^-4
CCCCC1=C(C)C2=C(C)c3c(C)c(CCCC)c(C)n3[B-](F)(F)[N+]2=C1C [Compound 7e],λf,[1]; 2 × 10^-4 M in ethanol,550 nm
same,.PHI.f (fluorescence quantum yield),[1],0.90
same,λmax,[2]; 5 × 10^-6 M in ethanol,518 nm
same,log ε,[2],4.92
"COC1=C(C)C(C)=[N+]2C1=C(C)c1c(OC)c(C)c(C)n1[B-]2(F)F [Compound 7n, 1,7-dimethoxy-2,3,5,6,8-pentamethylpyrromethene-BF2 complex]",λf,[1]; 2 × 10^-4 M in ethanol,522 nm
same,.PHI.f (fluorescence quantum yield),[1],0.84
same,λmax,[2]; 5 × 10^-6 M in ethanol,485 nm
same,log ε,[2],4.85

# From patent publication US5446157A, “Boron difluoride compounds useful in photodynamic therapy and production of laser light” (priority 1993, dated 1995)
